Reference: patent US9315520B2, “2-amino-6-methyl-4,4a,5,6-tetrahydropyrano[3,4-d][1,3]thiazin-8a(8H)-yl-1,3-thiazol-4-yl amides” (Pfizer Inc., priority 2014, dated 2016)
Structures can show the parent of a compound that is named as a salt. Where two headings read alike, the source gives them in different places.

Biological target: BACE1 (Homo sapiens (Human), UniProt P56817)
Experiment: BACE1 Cell-Free Assay (fluorescence polarization)
Assay type: biochemical
Settings: read-out: BACE1 Cell-free Assay IC50
Source text: This assay measures the inhibition of the beta-secretase enzyme as it cleaves a non-native peptide.
A synthetic APP substrate that can be cleaved by beta-secretase having N-terminal biotin and made fluorescent by the covalent attachment of Oregon Green at the Cys residue is used to assay beta-secretase activity in the presence or absence of the inhibitory compounds. […] The BACE1 enzyme is affinity purified material from conditioned media of CHO-K1 cells that have been transfected with a soluble BACE construct (BACE1deltaTM96His). […] Plates are covered and incubated for 3 hours at 37° C. […] The activity of the beta-secretase enzyme is detected by changes in the fluorescence polarization that occur when the substrate is cleaved by the enzyme.

[1] = geometric mean of 2-4 determinations unless otherwise indicated (b: ≧5; c: single determination)

Chain of BACE1 (P56817 46-457): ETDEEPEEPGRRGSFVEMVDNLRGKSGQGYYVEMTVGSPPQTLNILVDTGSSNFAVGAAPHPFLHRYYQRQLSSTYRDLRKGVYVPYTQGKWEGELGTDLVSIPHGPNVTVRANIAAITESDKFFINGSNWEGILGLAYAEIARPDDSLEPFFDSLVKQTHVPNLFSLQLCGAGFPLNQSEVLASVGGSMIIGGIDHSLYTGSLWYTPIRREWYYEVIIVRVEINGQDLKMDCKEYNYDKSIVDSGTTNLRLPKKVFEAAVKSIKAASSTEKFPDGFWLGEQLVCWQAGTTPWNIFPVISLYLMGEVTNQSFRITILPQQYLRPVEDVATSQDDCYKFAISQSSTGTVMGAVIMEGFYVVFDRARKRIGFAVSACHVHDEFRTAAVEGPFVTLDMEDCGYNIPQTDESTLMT

Structure (SMILES)	IC50 [1]	IC50
C[C@H]1C[C@H]2CSC(N)=N[C@@]2(c2nc(NC(=O)c3coc(CF)n3)cs2)CO1 [Example 3, N-{2-[(4aR,6S,8aR)-2-amino-6-methyl-4,4a,5,6-tetrahydropyrano[3,4-d][1,3]thiazin-8a(8H)-yl]-1,3-thiazol-4-yl}-2-(fluoromethyl)-1,3-oxazole-4-carboxamide]	0.007 µM	–
C[C@H]1C[C@H]2CSC(N)=N[C@@]2(c2nc(NC(=O)c3ccn(C(F)F)n3)cs2)CO1 [Example 4, N-{2-[(4aR,6S,8aR)-2-amino-6-methyl-4,4a,5,6-tetrahydropyrano[3,4-d][1,3]thiazin-8a(8H)-yl]-1,3-thiazol-4-yl}-1-(difluoromethyl)-1H-pyrazole-3-carboxamide]	0.009 µM	–
C[C@H]1C[C@H]2CSC(N)=N[C@@]2(c2nc(NC(=O)c3ccc(C#N)cn3)cs2)CO1 [Example 5, N-{2-[(4aR,6S,8aR)-2-amino-6-methyl-4,4a,5,6-tetrahydropyrano[3,4-d][1,3]thiazin-8a(8H)-yl]-1,3-thiazol-4-yl}-5-cyanopyridine-2-carboxamide]	0.022 µM	–
C[C@H]1C[C@H]2CSC(N)=N[C@@]2(c2nc(NC(=O)c3ccc(F)cn3)cs2)CO1 [Example 9, N-{2-[(4aR,6S,8aR)-2-amino-6-methyl-4,4a,5,6-tetrahydropyrano[3,4-d][1,3]thiazin-8a(8H)-yl]-1,3-thiazol-4-yl}-5-fluoropyridine-2-carboxamide]	0.189 µM	–
COc1cnc(C(=O)Nc2csc([C@]34CO[C@@H](C)C[C@H]3CSC(N)=N4)n2)cn1 [Example 10, N-{2-[(4aR,6S,8aR)-2-amino-6-methyl-4,4a,5,6-tetrahydropyrano[3,4-d][1,3]thiazin-8a(8H)-yl]-1,3-thiazol-4-yl}-5-methoxypyrazine-2-carboxamide]	0.536 µM	–
C[C@H]1C[C@H]2CSC(N)=N[C@@]2(c2nc(NC(=O)c3cnc(CF)cn3)cs2)CO1 [Example 11, N-{2-[(4aR,6S,8aR)-2-amino-6-methyl-4,4a,5,6-tetrahydropyrano[3,4-d][1,3]thiazin-8a(8H)-yl]-1,3-thiazol-4-yl}-5-(fluoromethyl)pyrazine-2-carboxamide]	0.315 µM	–
C[C@H]1C[C@H]2CSC(N)=N[C@@]2(c2nc(NC(=O)c3cnc(OCC(F)F)cn3)cs2)CO1 [Example 12, N-{2-[(4aR,6S,8aR)-2-amino-6-methyl-4,4a,5,6-tetrahydropyrano[3,4-d][1,3]thiazin-8a(8H)-yl]-1,3-thiazol-4-yl}-5-(2,2-difluoroethoxy)pyrazine-2-carboxamide]	0.28 µM	–
Cc1cc(F)cnc1C(=O)Nc1csc([C@]23CO[C@@H](C)C[C@H]2CSC(N)=N3)n1 [Example 13, N-{2-[(4aR,6S,8aR)-2-amino-6-methyl-4,4a,5,6-tetrahydropyrano[3,4-d][1,3]thiazin-8a(8H)-yl]-1,3-thiazol-4-yl}-5-fluoro-3-methylpyridine-2-carboxamide, formate salt]	–	0.09 µM
C[C@H]1C[C@H]2CSC(N)=N[C@@]2(c2nc(NC(=O)c3ccc(F)cc3)cs2)CO1 [Example 14, N-{2-[(4aR,6S,8aR)-2-amino-6-methyl-4,4a,5,6-tetrahydropyrano[3,4-d][1,3]thiazin-8a(8H)-yl]-1,3-thiazol-4-yl}-4-fluorobenzamide, formate salt]	–	0.866 µM
C[C@H]1C[C@H]2CSC(N)=N[C@@]2(c2nc(NC(=O)c3cnc(C(F)F)cn3)cs2)CO1 [Example 15, N-{2-[(4aR,6S,8aR)-2-amino-6-methyl-4,4a,5,6-tetrahydropyrano[3,4-d][1,3]thiazin-8a(8H)-yl]-1,3-thiazol-4-yl}-5-(difluoromethyl)pyrazine-2-carboxamide]	0.145 µM	–
C[C@H]1C[C@H]2CSC(N)=N[C@@]2(c2nc(NC(=O)c3cnc(C(F)(F)F)cn3)cs2)CO1 [Example 16, N-{2-[(4aR,6S,8aR)-2-amino-6-methyl-4,4a,5,6-tetrahydropyrano[3,4-d][1,3]thiazin-8a(8H)-yl]-1,3-thiazol-4-yl}-5-(trifluoromethyl)pyrazine-2-carboxamide, formate salt]	–	0.193 µM
C[C@H]1C[C@H]2CSC(N)=N[C@@]2(c2nc(NC(=O)c3ccc(C(F)(F)F)cn3)cs2)CO1 [Example 17, N-{2-[(4aR,6S,8aR)-2-amino-6-methyl-4,4a,5,6-tetrahydropyrano[3,4-d][1,3]thiazin-8a(8H)-yl]-1,3-thiazol-4-yl}-5-(trifluoromethyl)pyridine-2-carboxamide]	0.054 µM	–
C[C@H]1C[C@H]2CSC(N)=N[C@@]2(c2nc(NC(=O)c3ncc(F)cc3F)cs2)CO1 [Example 18, N-{2-[(4aR,6S,8aR)-2-amino-6-methyl-4,4a,5,6-tetrahydropyrano[3,4-d][1,3]thiazin-8a(8H)-yl]-1,3-thiazol-4-yl}-3,5-difluoropyridine-2-carboxamide]	0.153 µM	–
COc1ccc(C(=O)Nc2csc([C@]34CO[C@@H](C)C[C@H]3CSC(N)=N4)n2)nc1 [Example 19, N-{2-[(4aR,6S,8aR)-2-amino-6-methyl-4,4a,5,6-tetrahydropyrano[3,4-d][1,3]thiazin-8a(8H)-yl]-1,3-thiazol-4-yl}-5-methoxypyridine-2-carboxamide]	0.259 µM	–
C[C@H]1C[C@H]2CSC(N)=N[C@@]2(c2nc(NC(=O)c3ccc(OC(F)(F)F)cn3)cs2)CO1 [Example 20, N-{2-[(4aR,6S,8aR)-2-amino-6-methyl-4,4a,5,6-tetrahydropyrano[3,4-d][1,3]thiazin-8a(8H)-yl]-1,3-thiazol-4-yl}-5-(trifluoromethoxy)pyridine-2-carboxamide]	0.108 µM	–
C[C@H]1C[C@H]2CSC(N)=N[C@@]2(c2nc(NC(=O)c3ccc(OC(F)F)cc3)cs2)CO1 [Example 21, N-{2-[(4aR,6S,8aR)-2-amino-6-methyl-4,4a,5,6-tetrahydropyrano[3,4-d][1,3]thiazin-8a(8H)-yl]-1,3-thiazol-4-yl}-4-(difluoromethoxy)benzamide]	0.106 µM	–
CC#CCOc1cnc(C(=O)Nc2csc([C@]34CO[C@@H](C)C[C@H]3CSC(N)=N4)n2)cn1 [Example 22, N-{2-[(4aR,6S,8aR)-2-amino-6-methyl-4,4a,5,6-tetrahydropyrano[3,4-d][1,3]thiazin-8a(8H)-yl]-1,3-thiazol-4-yl}-5-(but-2-yn-1-yloxy)pyrazine-2-carboxamide]	0.013 µM	–
C[C@H]1C[C@H]2CSC(N)=N[C@@]2(c2nc(NC(=O)c3cc4ccccn4n3)cs2)CO1 [Example 23, N-{2-[(4aR,6S,8aR)-2-amino-6-methyl-4,4a,5,6-tetrahydropyrano[3,4-d][1,3]thiazin-8a(8H)-yl]-1,3-thiazol-4-yl}pyrazolo[1,5-a]pyridine-2-carboxamide]	1 µM	–
C[C@H]1C[C@H]2CSC(N)=N[C@@]2(c2nc(NC(=O)c3ccn(C)n3)cs2)CO1 [Example 24, N-{2-[(4aR,6S,8aR)-2-amino-6-methyl-4,4a,5,6-tetrahydropyrano[3,4-d][1,3]thiazin-8a(8H)-yl]-1,3-thiazol-4-yl}-1-methyl-1H-pyrazole-3-carboxamide]	0.081 µM	–
C[C@H]1C[C@H]2CSC(N)=N[C@@]2(c2nc(NC(=O)c3ccc(C(F)F)cn3)cs2)CO1 [Example 25, N-{2-[(4aR,6S,8aR)-2-amino-6-methyl-4,4a,5,6-tetrahydropyrano[3,4-d][1,3]thiazin-8a(8H)-yl]-1,3-thiazol-4-yl}-5-(difluoromethyl)pyridine-2-carboxamide]	0.074 µM	–
C[C@H]1C[C@H]2CSC(N)=N[C@@]2(c2nc(NC(=O)c3ccc(OCF)cn3)cs2)CO1 [Example 26, N-{2-[(4aR,6S,8aR)-2-amino-6-methyl-4,4a,5,6-tetrahydropyrano[3,4-d][1,3]thiazin-8a(8H)-yl]-1,3-thiazol-4-yl}-5-(fluoromethoxy)pyridine-2-carboxamide]	0.068 µM	–
C[C@H]1C[C@H]2CSC(N)=N[C@@]2(c2nc(NC(=O)c3coc(C4CC4)n3)cs2)CO1 [Example 27, N-{2-[(4aR,6S,8aR)-2-amino-6-methyl-4,4a,5,6-tetrahydropyrano[3,4-d][1,3]thiazin-8a(8H)-yl]-1,3-thiazol-4-yl}-2-cyclopropyl-1,3-oxazole-4-carboxamide]	1.31 µM	–
C[C@H]1C[C@H]2CSC(N)=N[C@@]2(c2nc(NC(=O)c3cnccn3)cs2)CO1 [Example 28, N-{2-[(4aR,6S,8aR)-2-amino-6-methyl-4,4a,5,6-tetrahydropyrano[3,4-d][1,3]thiazin-8a(8H)-yl]-1,3-thiazol-4-yl}pyrazine-2-carboxamide]	0.647 µM	–
Cc1nn(C)cc1C(=O)Nc1csc([C@]23CO[C@@H](C)C[C@H]2CSC(N)=N3)n1 [Example 29, N-{2-[(4aR,6S,8aR)-2-amino-6-methyl-4,4a,5,6-tetrahydropyrano[3,4-d][1,3]thiazin-8a(8H)-yl]-1,3-thiazol-4-yl}-1,3-dimethyl-1H-pyrazole-4-carboxamide]	1.99 µM	–
C[C@H]1C[C@H]2CSC(N)=N[C@@]2(c2nc(NC(=O)c3cccnn3)cs2)CO1 [Example 30, N-{2-[(4aR,6S,8aR)-2-amino-6-methyl-4,4a,5,6-tetrahydropyrano[3,4-d][1,3]thiazin-8a(8H)-yl]-1,3-thiazol-4-yl}pyridazine-3-carboxamide]	2.16 µM	–
C[C@H]1C[C@H]2CSC(N)=N[C@@]2(c2nc(NC(=O)c3cc(C4CC4)on3)cs2)CO1 [Example 31, N-{2-[(4aR,6S,8aR)-2-amino-6-methyl-4,4a,5,6-tetrahydropyrano[3,4-d][1,3]thiazin-8a(8H)-yl]-1,3-thiazol-4-yl}-5-cyclopropyl-1,2-oxazole-3-carboxamide]	3.82 µM	–
